# Measurements from article PMC9023740, “Mucin-Type O-Glycosylation Proximal to β-Secretase Cleavage Site Affects APP Processing and Aggregation Fate” (Frontiers in Chemistry, 2022).
# Key:
# [1] = target: T1, Recombinant human BACE-1 (rhBACE-1) (Homo sapiens, UniProt P56817); experiment: Proteolytic cleavage of APP (glyco)peptides by BACE-1, RP-HPLC peak integration; format: biochemical; details: 100 μM substrate, 50 nM rhBACE-1, 0.1 M sodium acetate pH 4.0, 24 h, 37°C, dark; RP-HPLC peak integration at 214 nm, averaged from two injections, SD <5%
# T1 construct: purchased R&D Systems #ES004 and #931-AS, respectively (so in the source)
# T1 sequence (P56817 46-457 limits assumed): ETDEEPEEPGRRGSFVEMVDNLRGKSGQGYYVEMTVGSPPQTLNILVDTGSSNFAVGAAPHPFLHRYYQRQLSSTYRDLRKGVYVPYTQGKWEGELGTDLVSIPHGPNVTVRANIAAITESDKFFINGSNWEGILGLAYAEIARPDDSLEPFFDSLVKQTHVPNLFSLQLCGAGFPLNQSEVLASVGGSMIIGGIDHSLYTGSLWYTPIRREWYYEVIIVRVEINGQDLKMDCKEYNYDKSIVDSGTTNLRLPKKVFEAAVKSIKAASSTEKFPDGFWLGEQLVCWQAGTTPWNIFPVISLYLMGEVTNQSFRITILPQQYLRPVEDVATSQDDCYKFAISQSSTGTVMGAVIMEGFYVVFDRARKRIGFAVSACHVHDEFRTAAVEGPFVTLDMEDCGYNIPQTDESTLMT
# Description: All APP-based substrates were prepared as 10 mM stocks in DMSO. Before proteolysis, the activity of BACE-1 was verified by the reaction with the fluorogenic BACE-1substrate Mca-[…](Dnp)RR-NH2 ([Koike et al., 1999]) as per the manufacturer’s instructions. For the proteolysis assay, APP-based substrates were diluted in BACE-1 activity buffer (0.1 M sodium acetate, pH 4.0) to the final assay concentration of 100 μM. BACE-1 was diluted to 50 nM final concentration. Reactions were incubated for 24 h at 37°C in the dark. After the incubation period, the enzyme cleavage solutions containing APP-based substrates and BACE-1 were analyzed using the analytical RP-HPLC method on the Aeris C18 column with 0.1% TFA in water (A) and 0.1% TFA in acetonitrile (B) as eluents and 0–60% B as the elution gradient over 30 min with a flow rate of 0.8 ml/min, and detection at 214 nm or the Vydac Denali C18 column with 0.1% TFA in water (A) and 0.1% TFA in acetonitrile (B) as eluents and 0–60% B as the elution gradient over 30 min with a flow rate of 1 ml/min, and detection at 214 nm. The identity of intact and cleaved (N- and C-terminal) fragments of (glyco)peptides in the absence and presence of BACE-1 (β-secretase) was confirmed by MALDI-TOF and their percentages were evaluated by the integration of the RP-HPLC peaks (averaged from two injections).
# Glycosylation can alter substrate recognition and impact enzyme activity in either a positive (enhancing) or negative (inhibiting) manner ([Goettig, 2016]; [Goth et al., 2018]). The mucin-type O-linked glycosylation of a protein may not only affect its conformation but also affect its transport and localization in the cell ([Matsuura et al., 1989]; [Chen et al., 2002]). Proteases are highly regulated by post-translational modifications and drive fate, localization, and activity of many proteins ([Bond, 2019]). Certain mutations can also affect the subcellular localization of the cleavage event by crucial proteases and mediate a different cellular mechanism for the protein ([Haass et al., 1995]). […] Therefore, similar enzyme cleavage assays with BACE-1 were set up to explore the effect of the Swedish mutation, length of the amino acid sequence, glycan position and valency on the proteolytic susceptibility of 3–12. BACE1 produced two fragments upon cleavage of (glyco)peptides, for which yields were determined after 24 h treatment. The yields of intact peptide and fragments were evaluated by the RP-HPLC peaks integration (Table 3, and the Supplementary Material S20–S32).
# 3. Enzyme cleavage assays with APP (glyco)peptides 3-12 by RP-HPLC and MALDI-TOF MS
# For the BACE1 enzyme cleavage assay, APP-based (glyco)peptide substrates were diluted in BACE1 activity buffer and incubated with BACE1 for 24 h at 37 °C in the dark. After the incubation period, the enzyme cleavage solutions containing APP-based (glyco)peptide substrates and BACE1 were analyzed using analytical RP-HPLC.
# RP-HPLC gradient on Phenomenex Aeris Peptide C18 column (150 x 4.6 mm, 3.6 µm, 100Å):
# Eluents were 0.1% TFA in water (A) and 0.1% TFA in acetonitrile (B). The elution gradient was 0-60%B in 30 minutes with a flow rate of 0.8 mL/min. Detection was at λ = 214 nm.
# S*/T*= Ser(-α-GalNAc) 1/Thr(-α-GalNAc) 2
# (a) APP665-680, 3 in activity buffer
# (b) APP665-680 (3) + BACE1 in activity buffer […]
# [2] = Analytical RP-HPLC retention time, read as hydrophobicity/hydrophilicity; format: physicochemical; details: C18 (Phenomenex Aeris Peptide C18 150 x 4.6 mm, 0.8 ml/min), 0.1% TFA water/acetonitrile, 0-60% B over 30 min, 214 nm, Supplementary S2-S9
# Description: Purification of all (glyco)peptides and their corresponding analyses were performed on a 1,260 Agilent Infinity system. The analytical RP-HPLC method uses a Phenomenex Aeris Peptide C18 column (150 mm × 4.6 mm, 3.6 μm, 100 Å) at 0.8 ml/min flow rate or a Vydac Denali C18 column (250 mm × 4.6 mm, 5 μm, 120Å) at 1 ml/min flow rate, with 0.1% TFA in water (A) and 0.1% TFA in acetonitrile (B) as the eluents. The elution gradient for analytical RP-HPLC purification was 0–60% B over 30 min. The preparative RP-HPLC method uses the Grace Vydac monomeric C18 column (250 mm × 22 mm, 15–20 μm, 300Å) at 10 ml/min flow rate, with 0.1% TFA in water (A) and 0.1% TFA in acetonitrile (B) as the eluents. The elution gradient for preparative RP-HPLC purification was 0–50% over 110 min. The (glyco)peptides were detected at 214 nm by using a UV-Vis detector (Agilent 1,260 Infinity DAD). Purified (glyco)peptides were characterized by matrix-assisted laser desorption ionization time-of-flight mass spectrometry (MALDI-TOF MS) with a Voyager-DE STR system or a Bruker Microflex system, using α-cyano-4-hydroxycinnamic acid as matrix.
# Automated solid-phase peptide synthesis (SPPS) approach on Tentagel S RAM resin was used to assemble the APP (glyco)peptides. […]
# [3] = CD spectroscopy, secondary structure content by BeStSel; format: physicochemical; details: CD, BeStSel, 0.065 mg/ml, 25°C
# Description: All (glyco)peptides were analyzed for their secondary structure using circular dichroism (CD) spectroscopy on a Jasco-810 spectropolarimeter (Jasco, Easton, MD) in three solvent systems: water, 10 mM sodium phosphate buffer (pH 7.4), and 50% trifluoroethanol (TFE) in water (v/v) mixture. The CD spectra were recorded using a quartz cell of 1 mm optical path length over a wavelength range of […] with a scanning speed of 100 nm/min and a response time of 4 s at 25°C. A concentration of 0.065 mg/ml, determined using the analytical RP-HPLC method, gave the […] signal-to-noise ratio for all (glyco)peptides. All spectra were baseline-corrected to account for the signal contribution from solvent and then converted into molar ellipticity (deg cm^2 dmol^−1) ([Sreerama and Woody, 2000]). Lastly, the percentages of all secondary structures were determined using the BeStSel method ([Micsonai et al., 2018]; [Singh et al., 2021]).
# To study the role of O-glycosylation on the conformation of APP glycopeptides, circular dichroism (CD) spectroscopy was used to probe the secondary structure in three different solvents, water, sodium phosphate buffer (10 mM, pH 7.4), and 50% trifluoroethanol (TFE) in water (v/v) (Figure 1). The spectra were further analysed for secondary structure estimations by Beta Structure Selection (BeStSel) method, specifically designed for the analysis of beta sheet-rich proteins (Table 2) ([Micsonai et al., 2015], [2018]).
# Aβ40 = target: T2, Aβ40 (Homo sapiens, UniProt P05067); experiment: ThT aggregation kinetics assay of Aβ40 with APP (glyco)peptides; details: 50 mM phosphate buffer pH 7.4, 20 µM ThT, 37°C
# T2 construct: Aβ40 peptide was synthesized on a PS3 solid phase peptide synthesizer; made in house; host or cells: chemical solid-phase peptide synthesis (Fmoc), no expression host
# T2 sequence (P05067 672-711 limits assumed): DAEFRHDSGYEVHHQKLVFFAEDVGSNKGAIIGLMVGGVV
# Description: Lyophilized peptide powder was dissolved in aqueous NaOH solution (2 mM), and the pH was adjusted to ∼11 by using 100 mM NaOH solution. The solution was sonicated for 1 h in an ice−water bath and then filtered through a 0.22 μm filter (Millipore) and kept on ice before use. The concentration of the peptide solution was determined by using the tyrosine UV absorbance at 280 nm (ε = 1280 M^−1 cm^−1).
# The aggregation kinetics of Aβ40 in the absence and presence of APP (glyco)peptides was performed using ThT binding assay. The monomerized Aβ40 peptide solution was diluted to a final concentration of 10 µM in 50 mM phosphate buffer (pH 7.4) and 20 µM ThT dye. For the co-incubation assays with APP (glyco)peptides, APP stock solutions of 120 µM were added to the prepared Aβ40 for final (glyco) peptide concentrations of 10 µM or 50 µM and Aβ40 concentration of 10 µM in 50 mM phosphate buffer (pH 7.4) with 20 µM ThT dye. […] The plate was sealed with a microplate cover and loaded into a Gemini SpectraMax EM fluorescence plate reader (Molecular Devices, Sunnyvale, CA) and incubated at 37°C. The ThT fluorescence was measured from the bottom of the plate at 10 min intervals, with 5 s of shaking, and with an excitation and emission wavelengths of 440 and 480 nm, respectively. […]
# °C. ThT fluorescence was measured in 10 minute intervals.
# [4] = (B) 10 mM sodium phosphate buffer, pH 7.4
molecule,measurement,setting,value
"IKT*EEISEVKM∼DAEFRHDSG [compound 8, native APP 661-680 glycopeptide with O-GalNAc on Thr^663]","BACE-1 activity, Cleaved (%)",[1],8.46%
same,"BACE-1 activity, Recovered (%)",[1],91.5%
same,RP-HPLC t R,[2],14.4 min
same,RC (%) random coil,[3]; (A) water,87.4%
same,α-H (%) α-helix,[3]; (A) water,1.4%
same,β-AP (%) anti-parallel β-sheet,[3]; (A) water,5.4%
same,β-P (%) parallel β-sheet,[3]; (A) water,0.0%
same,β-T (%) β-turn,[3]; (A) water,5.7%
same,RC (%) random coil,[3]; [4],30.4%
same,α-H (%) α-helix,[3]; [4],8.8%
same,β-AP (%) anti-parallel β-sheet,[3]; [4],42.6%
same,β-P (%) parallel β-sheet,[3]; [4],0.0%
same,β-T (%) β-turn,[3]; [4],18.3%
same,RC (%) random coil,[3]; (C) TFE/water = 1:1 (v/v),8.3%
same,α-H (%) α-helix,[3]; (C) TFE/water = 1:1 (v/v),85.7%
same,β-AP (%) anti-parallel β-sheet,[3]; (C) TFE/water = 1:1 (v/v),0.0%
same,β-P (%) parallel β-sheet,[3]; (C) TFE/water = 1:1 (v/v),0.0%
same,β-T (%) β-turn,[3]; (C) TFE/water = 1:1 (v/v),6.0%
"CC(=O)N[C@H]1C(O)O[C@H](CO)[C@H](O)[C@@H]1O (mixture of isomers) [GalNAc, N-acetylgalactosamine]",Δt50 (t50 with additive - Aβ40 t50),"Aβ40; additive 10 and 50 µM, Aβ40 10 µM",< 0.5 h
"Aβ40: amyloid-β 40 peptide made by Fmoc SPPS, model peptide for studying protein aggregation",half time (t 50) of the growth phase of Aβ40 amyloidogenesis,"Aβ40; Aβ40 10 μM alone, triplicate",approximately 8 h
